Reference: patent US20070184519A1, “Peptides, polypeptides, and proteins of reduced immunogenicity and methods for their production” (priority 2003, published 2007)
pIC50: −log10 of the molar value. Like-named read-outs stand apart in the source and are kept apart here. Values belong to the molecule of their own block, whether it stands above or below them. Ends that are not written are not given here.

Assays:
[1] = molecular target: T1, DRB3*0101 (Homo sapiens, UniProt P01903+P79483); test: Class II peptide-binding assay DRB3*0101 (DR52a)
T1 construct: expressed in transfected cells; host or cells: transfected fibroblasts TR81.19

[2] = molecular target: T2, DRB4*0101 (Homo sapiens, UniProt P01903+P13762, G164S); test: Class II peptide-binding assay DRB4*0101 (DRw53)
T2 construct: expressed in transfected cells; host or cells: transfected fibroblasts L257.6

[3] = molecular target: T3, DRB1*0101 (Homo sapiens, UniProt P01903+P01911, A100R/D57E/F55L/F60I/F76Y/I96L/L162R/M171V/P40L/Q125E/R42F/V115G/Y59C); test: Class II peptide-binding assay DRB1*0101 (DR1); details: known HLA-DR and DQ restricted epitopes, Table 6
T3 construct: Epstein-Barr virus (EBV) transformed homozygous cell lines were used as sources of human HLA Class II molecules; endogenous in cells; host or cells: LG2 (EBV-transformed homozygous B cell line)

[4] = molecular target: T4, DRB1*0301 (Homo sapiens, UniProt P01903+P01911, A100K/A102G/A103R/A169T/F55Y/I96L/K41T/L162R/M171V/P40S/Q125H/Q178H/Q39Y/R42S/S66N/T106N/T262R/W38E/Y61H); test: Class II peptide-binding assay DRB1*0301 (DR3); details: known HLA-DR and DQ restricted epitopes, Table 6
T4 construct: Epstein-Barr virus (EBV) transformed homozygous cell lines were used as sources of human HLA Class II molecules; endogenous in cells; host or cells: MAT (EBV-transformed homozygous B cell line)
T4 sequence (P01903 26-254, other chains not shown): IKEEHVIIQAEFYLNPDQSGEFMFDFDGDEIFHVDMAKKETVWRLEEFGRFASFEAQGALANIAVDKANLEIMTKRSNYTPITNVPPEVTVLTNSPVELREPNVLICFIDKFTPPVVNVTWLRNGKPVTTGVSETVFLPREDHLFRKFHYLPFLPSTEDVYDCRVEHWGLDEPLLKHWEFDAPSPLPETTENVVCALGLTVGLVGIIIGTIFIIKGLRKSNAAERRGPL

[5] = molecular target: T5, DRB1*0401 (Homo sapiens, UniProt P01903+P01911, A100K/A169T/F76Y/I96L/K127E/L162R/M171V/N62H/P40V/Q125Y/R42H/S133A/S149N/S66Y/V115G/V209L/W38E); test: Class II peptide-binding assay DRB1*0401 (DR4w4); details: known HLA-DR and DQ restricted epitopes, Table 6
T5 construct: Epstein-Barr virus (EBV) transformed homozygous cell lines were used as sources of human HLA Class II molecules; endogenous in cells; host or cells: PREISS (EBV-transformed homozygous B cell line)

[6] = molecular target: T6, DRB1*0405 (Homo sapiens, UniProt P01903+P01911, A100R/A169T/D86S/F76Y/I96L/K127E/L162R/M171V/N62H/P40V/Q125Y/R42H/S133A/S149N/S66Y/V115G/V209L/W38E); test: Class II peptide-binding assay DRB1*0405 (DR4w15); details: known HLA-DR and DQ restricted epitopes, Table 6
T6 construct: Epstein-Barr virus (EBV) transformed homozygous cell lines were used as sources of human HLA Class II molecules; endogenous in cells; host or cells: KT3 (EBV-transformed homozygous B cell line)

[7] = molecular target: T7, DRB1*0701 (Homo sapiens, UniProt P01903+P01911, A100R/A102G/A103Q/D57E/D86V/E43K/F76Y/K127E/L162R/M171V/P40G/Q125H/Q99D/R33Q/R42Y/R54Q/S133A/S66F/T210M/V115G/Y107V/Y59L/Y89S); test: Class II peptide-binding assay DRB1*0701 (DR7); details: known HLA-DR and DQ restricted epitopes, Table 6
T7 construct: Epstein-Barr virus (EBV) transformed homozygous cell lines were used as sources of human HLA Class II molecules; endogenous in cells; host or cells: PITOUT (EBV-transformed homozygous B cell line)

[8] = molecular target: T8, DRB1*1101 (Homo sapiens, UniProt P01903+P01911, A100R/A169T/A87E/I96F/K41T/L162R/M171V/P40S/Q125H/Q178H/Q39Y/Q99D/R42S/S66Y/T262R/V115G/W38E); test: Class II peptide-binding assay DRB1*1101 (DR5w11)
T8 construct: Epstein-Barr virus (EBV) transformed homozygous cell lines were used as sources of human HLA Class II molecules; endogenous in cells; host or cells: SWEIG (EBV-transformed homozygous B cell line)
T8 sequence (P01903 26-254, other chains not shown): as above

[9] = molecular target: T9, DRB5*0101 (Homo sapiens, UniProt P01903+Q30154); test: Class II peptide-binding assay DRB5*0101 (DR2w2a)
T9 construct: Epstein-Barr virus (EBV) transformed homozygous cell lines were used as sources of human HLA Class II molecules; endogenous in cells; host or cells: GM3107 (EBV-transformed homozygous B cell line)

[10] = molecular target: T10, DRB1*0404 (Homo sapiens, UniProt P01903+P01911, A100R/A169T/F76Y/I96L/K127E/L162R/M171V/N62H/P40V/Q125Y/R42H/S133A/S149N/S66Y/V209L/W38E); test: Class II peptide-binding assay DRB1*0404 (DR4w14)
T10 construct: Epstein-Barr virus (EBV) transformed homozygous cell lines were used as sources of human HLA Class II molecules; endogenous in cells; host or cells: BIN40 (EBV-transformed homozygous B cell line)

[11] = inhibition of radiolabeled probe binding, — read as no appreciable binding
[12] = known HLA-DR and DQ restricted epitopes, Table 6

- pIC50 [1, 11]: 5.16
Molecule: LLYCFRKDMDKVETF

- pIC50 [2, 11]: 5.43
Molecule: LLKDLEEGIQTLMGR

- pIC50 [3]: 5.60
- pIC50 [4]: 5.50
- pIC50 [5]: < 4.70
- pIC50 [6]: 5.76
- pIC50 [7]: < 4.70
- pIC50 [2, 12]: 5.95
Molecule: CC[C@H](C)[C@H](NC(=O)[C@H](CCCNC(=N)N)NC(=O)[C@H](Cc1c[nH]c2ccccc12)NC(=O)[C@@H](NC(=O)[C@H](C)NC(=O)CNC(=O)[C@H](Cc1c[nH]c2ccccc12)NC(=O)[C@H](CO)NC(=O)[C@@H](N)CCC(=O)O)C(C)C)C(=O)N[C@@H](CC(=O)O)C(=O)N[C@H](C(=O)N1CCC[C@H]1C(=O)N[C@@H](CC(=O)O)C(=O)N[C@@H](CCCCN)C(=O)N[C@@H](CC(C)C)C(=O)N[C@H](C(=O)NCC(=O)N1CCC[C@H]1C(=O)N[C@@H](Cc1ccccc1)C(=O)N[C@H](C(=O)O)[C@@H](C)O)[C@@H](C)O)[C@@H](C)O

Molecule: CC[C@H](C)[C@H](NC(=O)[C@H](Cc1ccc(O)cc1)NC(=O)[C@@H]1CCCN1C(=O)[C@H](CC(=O)O)NC(=O)[C@H](CCC(=O)O)NC(=O)[C@H](CC(C)C)NC(=O)[C@@H](NC(=O)[C@H](C)N)C(C)C)C(=O)N[C@@H](CC(C)C)C(=O)N[C@@H](CC(C)C)C(=O)N[C@H](C(=O)N[C@@H](CO)C(=O)N[C@@H](CO)C(=O)N[C@@H](CCCCN)C(=O)N[C@H](C(=O)N[C@@H](CO)C(=O)O)C(C)C)C(C)C
- pIC50 [4]: < 4.70
- pIC50 [5]: 6.74
- pIC50 [7]: 7.14
- pIC50 [8, 12]: 5.18
- pIC50 [1]: 5.30
- pIC50 [2]: 5.38
- pIC50 [9]: 5.60

- pIC50 [10]: 6.82
- pIC50 [8]: 8.00
Molecule: CC(C)C[C@H](NC(=O)[C@H](Cc1ccccc1)NC(=O)[C@H](CC(N)=O)NC(=O)[C@H](CO)NC(=O)[C@H](Cc1ccc(O)cc1)NC(=O)[C@@H](NC(=O)[C@H](CCCNC(=N)N)NC(=O)[C@H](Cc1ccccc1)NC(=O)CNC(=O)[C@H](CCCCN)NC(=O)[C@H](CCCNC(=N)N)NC(=O)[C@H](Cc1ccccc1)NC(=O)[C@@H](NC(=O)[C@@H](N)CC(=O)O)[C@@H](C)O)C(C)C)C(=O)N[C@@H](CCCNC(=N)N)C(=O)O

- pIC50 ([1]; IFNb 15-mer peptides, Table 5D): 5.17
Molecule: LWQLNGRLEYCLKDR

Molecule: CC(C)C[C@H](NC(=O)[C@@H](NC(=O)[C@H](CC(C)C)NC(=O)[C@@H](NC(=O)[C@H](CCCCN)NC(=O)[C@H](Cc1ccc(O)cc1)NC(=O)CN)C(C)C)C(C)C)C(=O)N[C@@H](CC(N)=O)C(=O)N1CCC[C@H]1C(=O)N[C@@H](CO)C(=O)N[C@H](C(=O)N[C@@H](C)C(=O)N[C@@H](C)C(=O)N[C@H](C(=O)O)[C@@H](C)O)C(C)C
- pIC50 [1]: < 4.70

- pIC50 ([2]; IFNb 15-mer peptides, Table 5D): 5.86
- pIC50 ([9]; IFNb 15-mer peptides, Table 5D): 5.17
Molecule: NHLKTVLEEKLEKED [NHLKTVLEEKLEKED]
